In ChEMBL document CHEMBL5154646, “Structure-guided optimization of 1H-imidazole-2-carboxylic acid derivatives affording potent VIM-Type metallo-β-lactamase inhibitors” (Eur J Med Chem, 2022):

Tests used:
[1] = Inhibition of bacterial VIM-2 (27 to 266 residues) expressed in Escherichia coli Transetta (DE3) using FC-5 as substrate preincubated with enzyme for 10 mins followed by substrate addition by fluorescence based analysis; design: species or system Bacteria
[2] = Inhibition of bacterial recombinant full length C-terminal-TEV-His6-tagged VIM-1 expressed in Escherichia coli Transetta using FC-5 as substrate preincubated with enzyme for 10 mins followed by substrate addition by fluorescence based analysis; design: species or system Bacteria
[3] = Inhibition of bacterial recombinant full length N-terminal-TEV-His6-tagged VIM-5 expressed in Escherichia coli Transetta using FC-5 as substrate preincubated with enzyme for 10 mins followed by substrate addition by fluorescence based analysis; design: species or system Bacteria
[4] = Inhibition of bacterial NDM-1 (1 to 270 residues) expressed in Escherichia coli Transetta (DE3) using FC-5 as substrate preincubated with enzyme for 10 mins followed by substrate addition by fluorescence based analysis; design: species or system Bacteria
[5] = Inhibition of bacterial IMP-1 (1 to 246 residues) expressed in Escherichia coli Transetta (DE3) using FC-5 as substrate preincubated with enzyme for 10 mins followed by substrate addition by fluorescence based analysis; design: species or system Bacteria
[6] = test system: Escherichia coli; assay: Potentiation of meropenem-induced antibacterial activity against Escherichia coli C1541 expressing IMP-1 assessed as fold reduction in meropenem MIC at 10 ug/ml incubated for 18 to 20 hrs by CLSI based broth microtiter dilution method; type: functional; details: dose 10 µg/ml; time 18-20 hrs
[7] = test system: Escherichia coli; assay: Potentiation of meropenem-induced antibacterial activity against Escherichia coli C1541 expressing VIM-2 assessed as meropenem MIC at 10 ug/ml incubated for 18 to 20 hrs by CLSI based broth microtiter dilution method (reference value: 16 ug/ml); type: functional; details: dose 10 µg/ml, time 18-20 hrs
[8] = test system: Escherichia coli; assay: Potentiation of meropenem-induced antibacterial activity against Escherichia coli C1542 expressing VIM-2 assessed as meropenem MIC at 10 ug/ml incubated for 18 to 20 hrs by CLSI based broth microtiter dilution method (reference value: 16 ug/ml); type: functional; details: dose 10 µg/ml, time 18-20 hrs
[9] = test system: Escherichia coli; assay: Potentiation of meropenem-induced antibacterial activity against Escherichia coli C1541 expressing IMP-1 assessed as meropenem MIC at 10 ug/ml incubated for 18 to 20 hrs by broth microtiter dilution method (reference value: 32 ug/ml); type: functional; details: dose 10 µg/ml, time 18-20 hrs
[10] = test system: Escherichia coli; assay: Potentiation of meropenem-induced antibacterial activity against Escherichia coli C1541 expressing VIM-2 assessed as fold reduction in meropenem MIC at 10 ug/ml incubated for 18 to 20 hrs by CLSI based broth microtiter dilution method; type: functional; details: dose 10 µg/ml; time 18-20 hrs
[11] = test system: Escherichia coli; assay: Potentiation of meropenem-induced antibacterial activity against Escherichia coli C1542 expressing VIM-2 assessed as fold reduction in meropenem MIC at 10 ug/ml incubated for 18 to 20 hrs by CLSI based broth microtiter dilution method; type: functional; details: dose 10 µg/ml; time 18-20 hrs

Row | SMILES | IC50 [1] [µM] | IC50 [2] [µM] | IC50 [3] [µM] | IC50 [4] [µM] | IC50 [5] [µM] | MIC [7] [µg/mL] | MIC [8] [µg/mL] | MIC [9] [µg/mL] | fold change (FC) [6] | fold change (FC) [10] | fold change (FC) [11]
1 | O=C(O)c1nccn1Cc1ccoc1 | 42.7 | > 300 | > 300 | > 300 | > 300 | – | – | – | – | – | –
2 | Nn1ccnc1C(=O)O | > 300 | > 300 | 30.6 | > 300 | > 300 | – | – | – | – | – | –
3 | NC(=O)Cn1ccnc1C(=O)O | 118 | > 300 | > 300 | > 300 | > 300 | – | – | – | – | – | –
4 | CCn1ccnc1C(=O)O | 32 | > 300 | > 300 | > 300 | > 300 | – | – | – | – | – | –
5 | Cc1cn(Cc2ccccc2)c(C(=O)O)n1 | 10.7 | > 300 | 31.9 | > 300 | 1.5 | – | – | – | – | – | –
6 | CC(O)Cn1ccnc1C(=O)O (stereo unspecified) | > 300 | > 300 | > 300 | > 300 | > 300 | – | – | – | – | – | –
7 | NCCn1ccnc1C(=O)O | > 300 | > 300 | > 300 | > 300 | > 300 | – | – | – | – | – | –
8 | O=C(O)c1nccn1CCn1ccnn1 | 6.68 | > 300 | 47.3 | > 300 | > 300 | – | – | – | – | – | –
9 | CC(C)n1ccnc1C(=O)O | 10.1 | 21.2 | 133 | > 300 | > 300 | – | – | – | – | – | –
10 | O=C(O)c1ncc[nH]1 | 65.4 | > 300 | 30.9 | > 300 | > 300 | – | – | – | – | – | –
11 | CN(C)CCCn1ccnc1C(=O)O | > 300 | > 300 | > 300 | > 300 | > 300 | – | – | – | – | – | –
12 | O=C(O)c1nccn1C1CCC1 | 11.8 | 32.1 | > 300 | > 300 | 161 | – | – | – | – | – | –
13 | COCCn1ccnc1C(=O)O | 15.5 | 272 | 101 | > 300 | > 300 | – | – | – | – | – | –
14 | O=C(O)c1nccn1C1CCCC1 | 70.4 | 76.9 | > 300 | > 300 | > 300 | – | – | – | – | – | –
15 | CC(C(=O)O)n1ccnc1C(=O)O (stereo unspecified) | 52.4 | > 300 | 32.5 | > 300 | > 300 | – | – | – | – | – | –
16 | O=C(O)c1nccn1C1COC1 | > 300 | > 300 | > 300 | > 300 | > 300 | – | – | – | – | – | –
17 | Cn1ccnc1C(=O)O | > 300 | 227 | > 300 | > 300 | > 300 | – | – | – | – | – | –

Stronger by IC50 [1], values ahead:

Row | IC50 [1] [µM] | IC50 [2] [µM] | IC50 [3] [µM] | IC50 [4] [µM] | IC50 [5] [µM] | MIC [7] [µg/mL] | MIC [8] [µg/mL] | MIC [9] [µg/mL] | SMILES | fold change (FC) [6] | fold change (FC) [10] | fold change (FC) [11]
18 | 5.54 | > 300 | > 300 | > 300 | > 300 | – | – | – | O=C(O)c1nccn1Cc1ccccn1 | – | – | –
19 | 5.07 | 132 | 30.3 | > 300 | > 300 | – | – | – | O=C(O)c1nccn1Cc1ccsc1 | – | – | –
20 | 3.58 | > 300 | 18.9 | > 300 | > 300 | – | – | – | O=C(O)c1nccn1Cc1cccc([N+](=O)[O-])c1 | – | – | –
21 | 3.23 | > 300 | 9.02 | 121 | 111 | – | – | – | O=C(O)c1nccn1Cc1ccc(Cl)s1 | – | – | –
22 | 2.67 | 15.3 | 18.9 | > 300 | 58.4 | – | – | – | CCCn1ccnc1C(=O)O | – | – | –
23 | 2.04 | 21.3 | 31.6 | > 300 | > 300 | – | – | – | CCC(C)n1ccnc1C(=O)O (stereo unspecified) | – | – | –
24 | 1.55 | 11.7 | 21 | > 300 | 10.3 | – | – | – | O=C(O)c1nccn1Cc1ccco1 | – | – | –
25 | 0.77 | 30.5 | 22 | > 300 | > 300 | – | – | – | O=C(O)c1nccn1Cc1cccnc1Cl | – | – | –
26 | 0.13 | 15.5 | 0.18 | 34.1 | 110 | – | – | – | O=C(O)c1ncc(C2CC2)n1Cc1ccccc1 | – | – | –
27 | 0.015 | 4.31 | 0.33 | 59.2 | > 300 | 0.5 | 1 | 32 | O=C(O)c1ncc(-c2ccccc2)n1Cc1ccccc1 | 1 | 32 | 16
